Data reported in US11286231B2, “Hydrogen-bonding compounds, compositions comprising the same, and methods of preparing and using the same” (Wake Forest University Health Sciences, priority 2016, dated 2022).

Key:
Format in all cases: cell-based
HepG2 [1] = assay: 3D Live/Dead assay with red vs green pixel analysis; conditions: HepG2, 3D, days 1, 4, 7; 1% w/v compound solution
Procedure: (§1) 3.0×10^6 HepG2 and Caco-2 cells were harvested from the tissue culture dishes, respectively. Following, they were centrifuged into cell pellets and the supernatant was discarded. For each cell line, HepG2 and Caco2, three conditions were prepared, i.e., a positive control (HyStem®) and two experimental conditions (HyStem®+C1.1 and HyStem®+C1.2). To prepare each condition, a 3.0×10^6 cell pellet was suspended in 500 μL 1% w/v Heprasil®, 500 μL 1% w/v Gelatin-S®, 125 μL of 2% w/v Extralink®, and 125 μL of 1% w/v C1.1/C1.2 (experimental conditions) or 125 μL of sterile, deionized water (positive control). The final cell density for each condition was […]. One 50 μL sample of each hydrogel condition at each condition was aliquoted into a 96-well for each time point (1, 4, and 7 days). […] At each time point media was aspirated from the wells and were subsequently incubated for 45-60 min with 200 μL of DPBS containing […] of calcein AM and […] of ethidium homodimer. Live cells fluoresce green due to the uptake and hydrolysis of calcein AM, and the nuclei of dead cells are labelled by the red-fluorescent ethidium homodimer.
(§2) A MATLAB (MathWorks®) script (supplemental information, S.3) was used to quantify red and green fluorescent signals generated by biochemical interactions between the ethidium homodimer and calcein AM, and cells, respectively.
(§3) Quantification of the red (dead) and green (viable) pixels was performed using an image processing script written on MATLAB (S.3). In this case, the live cell staining corresponds with the cytoplasm of the cell while the dead stain only highlights the nuclei of the cell therefore we use the ratio of red to green pixels as a quantification to show the relative cell-viability rather than report individual Live/Dead cell quantification over time.

Caco-2 [2] = assay: as above; conditions: Caco-2, 3D, days 1, 4, 7; 1% w/v compound solution
Procedure: as §1, §2, §3

HepG2 [3] = assay: 2D 7-day MTS assay, cell proliferation on hydrogels; conditions: HepG2, 2D on hydrogel, days 1, 4, 7, 490 nm, FIG. 7
Procedure: (§4) At the proper confluency, the plates were washed with 10 mL of DPBS followed by an addition of 5 mL of trypsin and a 5 min incubation time at 37° C. Upon the conclusion of the incubation time light microscopy was used to determine that the cells had become detached. 5 mL of DMEM-10-1 was added to the plate and the trypsin/DMEM mixture was transferred into a 15 mL conical tube. A 1:4:5 ratio of cell mixture/DMEM-10-1/trypan blue was created in a 2.0 mL cryogenic vial. The mixture contained ˜1.2×10^5 cells-mL-1. The cells were pelleted down by centrifugation at 1500 rpm for 5 minutes and the trypsin/DMEM mixture was aspirated. The cells were resuspended in 10 mL of DMEM-10-1. For the MTS assay, 3.0×10^4 cells per well were seeded (In total 2.43×10^6 cells are needed for 81 wells). In each well (n=3 per time point) of a 96 well plate 16 μL of Heprasil® ([…], 1% w/v), 16 μL of Gelatin-S® (10 mg-mL-1, 1% w/v), 4 μL of Extralink® (5 mg 0.250 μL-1, 2% w/v), and 4 μL of modular catecholamine ([…], 3.6 mM, 1% w/v), C1.1 and C1.2, respectively were mixed by gently pipetting the solution up and down. The wells were then exposed to UV radiation (˜222 nm) for 3 seconds at distance of 1 cm to initiate crosslinking and form the hydrogel matrix. Approximately 30,000 cells were seeded per well; 200 μL of DMEM+10% FBS+1% pen-strep media at a density of 1.2×10^5 cells-mL-1 were aliquoted into each well, Caco-2 and HepG2 cell lines, respectively. A total of 27 wells per time point (3 per condition-positive control, catecholamine (C1.1), and catecholamide (C1.2) for each cell line, Caco-2 and HepG2. For the 3D cell cultural technique and amount of cells used in the live/dead assay refer to the Live/Dead Assay section.
(§5) The MTS assay is widely-used as a nonradioactive quantification of cellular proliferation, viability, and cytotoxicity.28 The MTS assay based on the reduction of MTS tetrazolium compound by viable cells to generate a colored formazan product that is soluble in cell culture media. This conversion is thought to be carried out by NAD(P)H-dependent dehydrogenase enzymes in metabolically active cells. MTS assays were performed using a CellTiter 96® AQueous One Solution Cell Proliferation Assay (G3582, Promega) at days 1, 4, 7. […] At the conclusion of the 45-minute incubation period a Molecular Device SpectraMax M5 plate reader was used to determine the optical density of each well monitored at 490 nm. […] Reported uncertainties were calculated using the standard deviations between the normalized OD values for n=3 runs of each condition.
(§6) In addition to Live/Dead assays, MTS assays were used to quantify the proliferation of cells. In this case, the ability for cells to proliferate in 2D when seeded on the hydrogels was assessed.

Caco-2 [4] = assay: as above; conditions: Caco-2, 2D on hydrogel, days 1, 4, 7, 490 nm, FIG. 7
Procedure: as §4, §5, §6

Row | SMILES | biocompatibility / cell viability in hydrogel (Live/Dead) (HepG2 [1]) | biocompatibility / cell viability in hydrogel (Live/Dead) (Caco-2 [2]) | cell proliferation, normalized optical density (MTS) compared to control (HepG2 [3]) | cell proliferation, normalized optical density (MTS) compared to control (Caco-2 [4])
1 | C#CCNCc1ccc(O)c(O)c1 [Compound C1.1] | only a slightly depressed biocompatibility | only a slightly depressed biocompatibility | higher | higher
2 | C#CCNC(=O)Cc1ccc(O)c(O)c1 [Compound C1.2] | only a slightly depressed biocompatibility | only a slightly depressed biocompatibility | higher | higher
